GI50 and IC50 data for 17 compounds are collected here from patent US11878973B2, “Bicyclic compounds and their uses” (NOVARTIS AG, priority 2021, dated 2024).

The subject of experiment [1] is SW48 cells. Description: Proliferation assay SW48 (CellTiterGlo, 96 hours). The conditions noted are these: Homo sapiens, SW48, read-out: Proliferation Assay SW48 (GI50). Background: ATP-based viability assays read luminescence as a measure of living cells.
Experiment [2] relates to DLD1-WRN-KO cells. Description: Proliferation assay DLD1-WRN-KO (CellTiterGlo, 96 hours; off-target effects). The conditions noted are these: Homo sapiens, read-out: Proliferation Assay DLD1-WRN-KO (GI50).
Experiment [3] has as its target WRN helicase (Homo sapiens (Human), UniProt Q14191). Description: In vitro enzymatic activity assay on WRN helicase (DNA dependent ATPase assay, ADP-Glo). The format is biochemical. To be noted: geometric means of at least 2 determinations; read-out: WRN ATPase Activity (IC50). Put shortly:
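The WRN helicase core (aa N517-P1238), 10 nM, hydrolysed 300 µM ATP in the presence of 0.2 nM FLAP26 DNA (Tris pH 7.5, 2 mM MgCl2, 50 mM NaCl) for 30 min at room temperature. ADP formed was quantified by ADP-Glo luminescence.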
In general terms: ADP-Glo turns the ADP formed in a reaction into a luminescent signal.

For orientation: IC50 means the concentration that inhibits the measured activity by half.

WRN helicase, sequence (Q14191 517-1238): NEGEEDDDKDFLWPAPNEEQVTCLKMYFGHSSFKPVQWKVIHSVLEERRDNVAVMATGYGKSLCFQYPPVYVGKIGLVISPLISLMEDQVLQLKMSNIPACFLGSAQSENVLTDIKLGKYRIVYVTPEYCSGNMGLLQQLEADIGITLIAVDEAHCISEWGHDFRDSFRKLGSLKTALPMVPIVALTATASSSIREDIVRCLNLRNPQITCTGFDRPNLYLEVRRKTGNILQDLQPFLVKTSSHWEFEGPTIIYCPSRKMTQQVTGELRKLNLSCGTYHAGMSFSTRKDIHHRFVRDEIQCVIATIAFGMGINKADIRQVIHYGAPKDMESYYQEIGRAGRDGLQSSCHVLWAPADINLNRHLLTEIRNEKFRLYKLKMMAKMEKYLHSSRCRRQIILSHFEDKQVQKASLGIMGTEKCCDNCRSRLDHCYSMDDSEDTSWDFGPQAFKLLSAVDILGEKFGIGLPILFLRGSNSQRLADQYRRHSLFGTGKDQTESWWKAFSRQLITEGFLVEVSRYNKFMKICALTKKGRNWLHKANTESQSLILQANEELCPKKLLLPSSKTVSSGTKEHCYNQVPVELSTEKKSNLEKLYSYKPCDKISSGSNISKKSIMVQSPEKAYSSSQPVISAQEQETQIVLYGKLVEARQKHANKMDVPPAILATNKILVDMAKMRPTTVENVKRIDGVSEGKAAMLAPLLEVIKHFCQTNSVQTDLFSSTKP

On to `CCc1c(N2CCN(C(=O)c3ncccc3O)CC2)c(=O)n2nc(C3=CCOCC3)nc2n1CC(=O)Nc1ccc(C(F)(F)F)nc1C` [Example 35, 2-(2-(3,6-dihydro-2H-pyran-4-yl)-5-ethyl-6-(4-(3-hydroxypicolinoyl)piperazin-1-yl)-7-oxo-[1,2,4]triazolo[1,5-a]pyrimidin-4(7H)-yl)-N-(2-methyl-6-(trifluoromethyl)pyridin-3-yl)acetamide], for which the GI50 is 400 nM in experiment [1] and above 10000 nM in experiment [2]. Also, the 50% inhibitory concentration (IC50) in experiment [3] is 190 nM.
For `CCc1c(N2CCN(C(=O)c3nccc(Cl)c3O)CC2)c(=O)n2nc(C3=CCOCC3)nc2n1CC(=O)Nc1ccc(C(F)(F)F)nc1C` [Example 36, 2-(6-(4-(4-chloro-3-hydroxypicolinoyl)piperazin-1-yl)-2-(3,6-dihydro-2H-pyran-4-yl)-5-ethyl-7-oxo-[1,2,4]triazolo[1,5-a]pyrimidin-4(7H)-yl)-N-(2-methyl-6-(trifluoromethyl)pyridin-3-yl)acetamide], in that order: 1780 nM, above 10000 nM and 930 nM.
In the same order, the values of `CCc1c(N2CCN(C(=O)c3nccc(Cl)c3O)CC2)c(=O)n2nc(C3=CCOCC3)nc2n1CC(=O)Nc1ccc(C(F)(F)F)c(F)c1C` [Example 37, 2-(6-(4-(4-chloro-3-hydroxypicolinoyl)piperazin-1-yl)-2-(3,6-dihydro-2H-pyran-4-yl)-5-ethyl-7-oxo-[1,2,4]triazolo[1,5-a]pyrimidin-4(7H)-yl)-N-(3-fluoro-2-methyl-4-(trifluoromethyl)phenyl)acetamide] are 30 nM, above 10000 nM and 20 nM.
For `CCc1c(N2CCN(C(=O)c3ncccc3O)CC2)c(=O)n2nc(C3=CCOCC3)nc2n1CC(=O)Nc1ccc(C(F)(F)F)c(F)c1C` [Example 38, 2-(2-(3,6-dihydro-2H-pyran-4-yl)-5-ethyl-6-(4-(3-hydroxypicolinoyl)piperazin-1-yl)-7-oxo-[1,2,4]triazolo[1,5-a]pyrimidin-4(7H)-yl)-N-(3-fluoro-2-methyl-4-(trifluoromethyl)phenyl)acetamide], in that order: 50 nM, above 10000 nM and 40 nM.
Take `CCc1c(N2CCN(C(=O)c3nccc(Cl)c3O)CC2)c(=O)n2nc(C3=CCOCC3)nc2n1CC(=O)Nc1ccc(C(F)(F)F)cc1Cl` [Example 39, 2-(6-(4-(4-chloro-3-hydroxypicolinoyl)piperazin-1-yl)-2-(3,6-dihydro-2H-pyran-4-yl)-5-ethyl-7-oxo-[1,2,4]triazolo[1,5-a]pyrimidin-4(7H)-yl)-N-(2-chloro-4-(trifluoromethyl)phenyl)acetamide]: the GI50 was 50 nM in experiment [1] and above 10000 nM in experiment [2]. For the same compound, in experiment [3], the 50% inhibitory concentration (IC50) turned out to be 40 nM.
In the same order, the values of `CCc1c(N2CCN(C(=O)c3nccc(F)c3O)CC2)c(=O)n2nc(C3=CCOCC3)nc2n1CC(=O)Nc1ccc(C(F)(F)F)cc1Cl` [Example 40, N-(2-chloro-4-(trifluoromethyl)phenyl)-2-(2-(3,6-dihydro-2H-pyran-4-yl)-5-ethyl-6-(4-(4-fluoro-3-hydroxypicolinoyl)piperazin-1-yl)-7-oxo-[1,2,4]triazolo[1,5-a]pyrimidin-4(7H)-yl)acetamide] are 30 nM, above 10000 nM and 20 nM.
For `CCc1c(N2CCN(C(=O)c3nc(C)cc(F)c3O)CC2)c(=O)n2nc(C3=CCOCC3)nc2n1CC(=O)Nc1ccc(C(F)(F)F)cc1Cl` [Example 41, N-(2-chloro-4-(trifluoromethyl)phenyl)-2-(2-(3,6-dihydro-2H-pyran-4-yl)-5-ethyl-6-(4-(4-fluoro-3-hydroxy-6-methylpicolinoyl)piperazin-1-yl)-7-oxo-[1,2,4]triazolo[1,5-a]pyrimidin-4(7H)-yl)acetamide], in that order: 40 nM, above 10000 nM and 40 nM.
In the same order, the values of `CCc1c(N2CCN(C(=O)c3ncncc3O)CC2)c(=O)n2nc(C3=CCOCC3)nc2n1CC(=O)Nc1ccc(C(F)(F)F)cc1Cl` [Example 44, N-(2-chloro-4-(trifluoromethyl)phenyl)-2-(2-(3,6-dihydro-2H-pyran-4-yl)-5-ethyl-6-(4-(5-hydroxypyrimidine-4-carbonyl)piperazin-1-yl)-7-oxo-[1,2,4]triazolo[1,5-a]pyrimidin-4(7H)-yl)acetamide] are 80 nM, above 10000 nM and 110 nM.
As to `CCc1c(N2CCN(C(=O)c3ncccc3O)CC2)c(=O)n2nc(C3=CCOCC3)nc2n1CC(=O)Nc1ccc(C(F)(F)F)nc1Cl` [Example 45, N-(2-chloro-6-(trifluoromethyl)pyridin-3-yl)-2-(2-(3,6-dihydro-2H-pyran-4-yl)-5-ethyl-6-(4-(3-hydroxypicolinoyl)piperazin-1-yl)-7-oxo-[1,2,4]triazolo[1,5-a]pyrimidin-4(7H)-yl)acetamide], the GI50 was 80 nM in experiment [1] and above 10000 nM in experiment [2]. In addition, the half-maximal inhibitory concentration (IC50) in experiment [3] came to 130 nM.
For `CCc1c(N2CCN(C(=O)c3nccc(Cl)c3O)CC2)c(=O)n2nc(C3=CCOCC3)nc2n1CC(=O)Nc1ccc(C(F)(F)F)nc1Cl` [Example 46, 2-(6-(4-(4-chloro-3-hydroxypicolinoyl)piperazin-1-yl)-2-(3,6-dihydro-2H-pyran-4-yl)-5-ethyl-7-oxo-[1,2,4]triazolo[1,5-a]pyrimidin-4(7H)-yl)-N-(2-chloro-6-(trifluoromethyl)pyridin-3-yl)acetamide], in that order: 110 nM, above 10000 nM and 110 nM.
As for `CCc1c(N2CCN(C(=O)c3ncnc(C)c3O)CC2)c(=O)n2nc(C3=CCOCC3)nc2n1CC(=O)Nc1ccc(C(F)(F)F)nc1Cl` [Example 47, N-(2-chloro-6-(trifluoromethyl)pyridin-3-yl)-2-(2-(3,6-dihydro-2H-pyran-4-yl)-5-ethyl-6-(4-(5-hydroxy-6-methylpyrimidine-4-carbonyl)piperazin-1-yl)-7-oxo-[1,2,4]triazolo[1,5-a]pyrimidin-4(7H)-yl)acetamide], the GI50 in experiment [1] was 170 nM; in experiment [2], above 10000 nM. In experiment [3], the IC50 stood at 140 nM.
In the same order, the values of `CCc1c(N2CCN(C(=O)c3nccc(F)c3O)CC2)c(=O)n2nc(C3=CCOCC3)nc2n1CC(=O)Nc1ccc(C(F)(F)F)nc1Cl` [Example 48, N-(2-chloro-6-(trifluoromethyl)pyridin-3-yl)-2-(2-(3,6-dihydro-2H-pyran-4-yl)-5-ethyl-6-(4-(4-fluoro-3-hydroxypicolinoyl)piperazin-1-yl)-7-oxo-[1,2,4]triazolo[1,5-a]pyrimidin-4(7H)-yl)acetamide] are 80 nM, above 10000 nM and 70 nM.
For the compound `CCc1c(N2CCN(C(=O)c3nc(C)cc(F)c3O)CC2)c(=O)n2nc(C3=CCOCC3)nc2n1CC(=O)Nc1ccc(C(F)(F)F)nc1Cl` [Example 49, N-(2-chloro-6-(trifluoromethyl)pyridin-3-yl)-2-(2-(3,6-dihydro-2H-pyran-4-yl)-5-ethyl-6-(4-(4-fluoro-3-hydroxy-6-methylpicolinoyl)piperazin-1-yl)-7-oxo-[1,2,4]triazolo[1,5-a]pyrimidin-4(7H)-yl)acetamide], the GI50 in experiment [1] was 120 nM; in experiment [2], above 10000 nM. The 50% inhibitory concentration (IC50) in experiment [3] amounted to 120 nM.
On to `CCc1c(N2CCN(C(=O)c3ncnc(C)c3O)CC2)c(=O)n2nc(C3=CCOCC3)nc2n1CC(=O)Nc1cc(F)c(C(F)(F)F)cc1C` [Example 50, 2-(2-(3,6-dihydro-2H-pyran-4-yl)-5-ethyl-6-(4-(5-hydroxy-6-methylpyrimidine-4-carbonyl)piperazin-1-yl)-7-oxo-[1,2,4]triazolo[1,5-a]pyrimidin-4(7H)-yl)-N-(5-fluoro-2-methyl-4-(trifluoromethyl)phenyl)acetamide], for which the GI50 is 50 nM in experiment [1] and above 10000 nM in experiment [2]. For the same compound, in experiment [3], the IC50 turned out to be 30 nM.
On to `CCc1c(N2CCN(C(=O)c3ncnc(C)c3O)CC2)c(=O)n2nc(C3=CCOCC3)nc2n1CC(=O)Nc1ccc(S(F)(F)(F)(F)F)cc1Cl` [Example 51, N-(2-chloro-4-(pentafluorosulfanyl)phenyl)-2-(2-(3,6-dihydro-2H-pyran-4-yl)-5-ethyl-6-(4-(5-hydroxy-6-methylpyrimidine-4-carbonyl)piperazin-1-yl)-7-oxo-[1,2,4]triazolo[1,5-a]pyrimidin-4(7H)-yl)acetamide], for which the GI50 in experiment [1] is 30 nM; in experiment [2] it was above 10000 nM. The IC50 in experiment [3] was determined as 40 nM.
For `CCc1c(N2CCN(C(=O)c3ncncc3O)CC2)c(=O)n2nc(C3=CCOCC3)nc2n1CC(=O)Nc1ccc(S(F)(F)(F)(F)F)cc1Cl` [Example 52, N-(2-chloro-4-(pentafluorosulfanyl)phenyl)-2-(2-(3,6-dihydro-2H-pyran-4-yl)-5-ethyl-6-(4-(5-hydroxypyrimidine-4-carbonyl)piperazin-1-yl)-7-oxo-[1,2,4]triazolo[1,5-a]pyrimidin-4(7H)-yl)acetamide], in that order: 40 nM, above 10000 nM and 40 nM.
As for `CCc1c(N2CCN(C(=O)c3ncnc(C)c3O)CC2)c(=O)n2nc(C3=CCOCC3)nc2n1CC(=O)Nc1cc(F)c(C(F)F)cc1C` [Example 53, N-(4-(difluoromethyl)-5-fluoro-2-methylphenyl)-2-(2-(3,6-dihydro-2H-pyran-4-yl)-5-ethyl-6-(4-(5-hydroxy-6-methylpyrimidine-4-carbonyl)piperazin-1-yl)-7-oxo-[1,2,4]triazolo[1,5-a]pyrimidin-4(7H)-yl)acetamide], the GI50 in experiment [1] was 140 nM; in experiment [2] it was above 10000 nM. Also, in experiment [3], the 50% inhibitory concentration (IC50) was 120 nM.
